Molecular target: Factor D (Homo sapiens (Human), UniProt P00746)
Experiment: biochemical
Type: biochemical
Conditions: read-out: IC50

Factor D, sequence (P00746 26-253): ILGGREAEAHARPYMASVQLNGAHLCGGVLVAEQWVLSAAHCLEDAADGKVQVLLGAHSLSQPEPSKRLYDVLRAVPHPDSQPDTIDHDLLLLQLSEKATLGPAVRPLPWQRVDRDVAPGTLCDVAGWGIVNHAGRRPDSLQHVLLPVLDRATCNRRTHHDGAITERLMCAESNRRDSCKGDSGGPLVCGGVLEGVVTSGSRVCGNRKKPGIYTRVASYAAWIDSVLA

Structure (SMILES) | IC50 [nM]
NC(=O)n1cc(NC(=O)N2C[C@@H](N)C[C@H]2C(=O)NCCc2cccc(F)c2)c2ccccc21 [Example 89, (2S,4S)-4-Amino-pyrrolidine-1,2-dicarboxylic acid 1-[(1-carbamoyl-1Hindol-3-yl)-amide] 2-{[2-(3-fluoro-phenyl)-ethyl]-amide}] | 7700
NC(=O)n1cc(NC(=O)N2C[C@@H](N)C[C@H]2C(=O)NCCc2cc(F)cc(Cl)c2)c2ccccc21 [Example 90, (2S,4S)-4-Amino-pyrrolidine-1,2-dicarboxylic acid 1-[(1-carbamoyl-1H-indol-3-yl)-amide] 2-{[2-(3-chloro-5-fluoro-phenyl)-ethyl]-amide}] | 1150
CC[C@H](C)[C@H](NC(=O)[C@@H]1C[C@H](N)CN1C(=O)Nc1cn(C(N)=O)c2ccccc12)C(=O)OC [Example 92, (2S,3S)-2-{[(2S,4S)-4-Amino-1-(1-carbamoyl-1H-indol-3-ylcarbamoyl)-pyrrolidine-2-carbonyl]-amino}-3-methyl-pentanoic acid methyl ester] | 8650
CCC[C@H](NC(=O)[C@@H]1C[C@H](N)CN1C(=O)Nc1cn(C(N)=O)c2ccccc12)C(=O)OC [Example 93, (S)-2-{[(2S,4S)-4-Amino-1-(1-carbamoyl-1H-indol-3-ylcarbamoyl)-pyrrolidine-2-carbonyl]-amino}-pentanoic acid methyl ester] | 4000
COC(=O)[C@H](CC(C)C)NC(=O)[C@@H]1C[C@H](N)CN1C(=O)Nc1cn(C(N)=O)c2ccccc12 [Example 95, (S)-2-{[(2S,4S)-4-Amino-1-(1-carbamoyl-1H-indol-3-ylcarbamoyl)-pyrrolidine-2-carbonyl]-amino}-4-methyl-pentanoic acid methyl ester] | 1350
COC(=O)[C@H](COC(C)(C)C)NC(=O)[C@@H]1C[C@H](N)CN1C(=O)Nc1cn(C(N)=O)c2ccccc12 [Example 96, (S)-2-{[(2S,4S)-4-Amino-1-(1-carbamoyl-1H-indol-3-ylcarbamoyl)-pyrrolidine-2-carbonyl]-amino}-3-tert-butoxy-propionic acid methyl ester] | 8050
COC(=O)[C@H](Cc1ccccc1)NC(=O)[C@@H]1C[C@H](N)CN1C(=O)Nc1cn(C(N)=O)c2ccccc12 [Example 97, (S)-2-{[(2S,4S)-4-Amino-1-(1-carbamoyl-1H-indol-3-ylcarbamoyl)-pyrrolidine-2-carbonyl]-amino}-3-phenyl-propionic acid methyl ester] | 900
COC(=O)[C@@H](NC(=O)[C@@H]1C[C@H](N)CN1C(=O)Nc1cn(C(N)=O)c2ccccc12)c1ccccc1 [Example 98, (S)-{[(2S,4S)-4-Amino-1-(1-carbamoyl-1H-indol-3-ylcarbamoyl)-pyrrolidine-2-carbonyl]-amino}-phenyl-acetic acid methyl ester] | 1850
CC[C@H](C)[C@H](NC(=O)[C@@H]1C[C@H](N)CN1C(=O)Nc1cn(C(N)=O)c2ccccc12)C(N)=O [Example 99, (2S,4S)-4-Amino-pyrrolidine-1,2-dicarboxylic acid 1-[(1-carbamoyl-1H-indol-3-yl)-amide] 2-[((1S,2S)-1-carbamoyl-2-methyl-butyl)-amide]] | 23200
CCc1cccc(CNC(=O)[C@@H]2C[C@H](N)CN2C(=O)Nc2cn(C(N)=O)c3ccccc23)c1 [Example 100, (2S,4S)-4-Amino-pyrrolidine-1,2-dicarboxylic acid 1-[(1-carbamoyl-1H-indol-3-yl)-amide] 2-(3-ethyl-benzylamide)] | 17600
CC[C@H](C)[C@@H](CO)NC(=O)[C@@H]1C[C@H](N)CN1C(=O)Nc1cn(C(N)=O)c2ccccc12 [Example 101, (2S,4S)-4-Amino-pyrrolidine-1,2-dicarboxylic acid 1-[(1-carbamoyl-1H-indol-3-yl)-amide] 2-[((1S,2S)-1-hydroxymethyl-2-methyl-butyl)-amide]] | 15200
CC(C)c1cccc(NC(=O)[C@@H]2C[C@H](N)CN2C(=O)Nc2cn(C(N)=O)c3ccccc23)c1 [Example 102, (2S,4S)-4-Amino-pyrrolidine-1,2-dicarboxylic acid 1-[(1-carbamoyl-1H-indol-3-yl)-amide]2-[(3-isopropyl-phenyl)-amide]] | 567
NC(=O)n1cc(NC(=O)N2C[C@@H](N)C[C@H]2C(=O)Nc2cccc(-c3ccccc3)c2)c2ccccc21 [Example 103, (2S,4S)-4-Amino-pyrrolidine-1,2-dicarboxylic acid 2-biphenyl-3-ylamide 1-[(1-carbamoyl-1H-indol-3-yl)-amide]] | 550
NC(=O)n1cc(NC(=O)N2C[C@H](F)C[C@H]2CNS(=O)(=O)c2ccccc2F)c2ccccc21 [Example 104, 3-({(2S,4R)-4-Fluoro-2-[(2-fluoro-benzenesulfonylamino)-methyl]-pyrrolidine-1-carbonyl}-amino)-indole-1-carboxylic acid amide] | 1490
NC(=O)n1cc(NC(=O)N2C[C@H](F)C[C@H]2CNS(=O)(=O)c2ccccc2)c2ccccc21 [Example 105, 3-{[(2S,4R)-2-(Benzenesulfonylamino-methyl)-4-fluoro-pyrrolidine-1-carbonyl]-amino}-indole-1-carboxylic acid amide] | 800
NC(=O)n1cc(NC(=O)N2C[C@H](F)C[C@H]2CNS(=O)(=O)c2cccc(F)c2)c2ccccc21 [Example 106, 3-({(2S,4R)-4-Fluoro-2-[(3-fluoro-benzenesulfonylamino)-methyl]-pyrrolidine-1-carbonyl}-amino)-indole-1-carboxylic acid amide] | 700
NC(=O)n1cc(NC(=O)N2C[C@H](F)C[C@H]2CNS(=O)(=O)c2cccc(Cl)c2)c2ccccc21 [Example 107, 3-({(2S,4R)-4-Fluoro-2-[(3-chloro-benzenesulfonylamino)-methyl]-pyrrolidine-1-carbonyl}-amino)-indole-1-carboxylic acid amide] | 75
NC(=O)n1cc(NC(=O)N2C[C@H](F)C[C@H]2CNS(=O)(=O)c2cccc(Br)c2)c2ccccc21 [Example 108, 3-({(2S,4R)-4-Fluoro-2-[(3-bromo-benzenesulfonylamino)-methyl]-pyrrolidine-1-carbonyl}-amino)-indole-1-carboxylic acid amide] | 55
NC(=O)n1cc(NC(=O)N2C[C@H](F)C[C@H]2CNS(=O)(=O)c2cccc(OC(F)(F)F)c2)c2ccccc21 [Example 109, 3-({(2S,4R)-4-Fluoro-2-[(3-trifluoromethoxy-benzenesulfonylamino)-methyl]-pyrrolidine-1-carbonyl}-amino)-indole-1-carboxylic acid amide] | 2700
NC(=O)n1cc(NC(=O)N2C[C@H](F)C[C@H]2CNS(=O)(=O)c2cccc(Cl)c2F)c2ccccc21 [Example 110, 3-({(2S,4R)-2-[(3-Chloro-2-fluoro-benzenesulfonylamino)-methyl]-4-fluoro-pyrrolidine-1-carbonyl}-amino)-indole-1-carboxylic acid amide] | 20
NC(=O)n1cc(NC(=O)N2C[C@H](F)C[C@H]2CNS(=O)(=O)c2ccc(Cl)s2)c2ccccc21 [Example 111, 3-({(2S,4R)-2-[(5-Chloro-thiophene-2-sulfonylamino)-methyl]-4-fluoro-pyrrolidine-1-carbonyl}-amino)-indole-1-carboxylic acid amide] | 60
NC(=O)n1cc(NC(=O)N2CCC[C@H]2CNS(=O)(=O)c2cccc(Cl)c2)c2ccccc21 [Example 112, 3-({(S)-2-[(3-Chloro-benzenesulfonylamino)-methyl]-pyrrolidine-1-carbonyl}-amino)-indole-1-carboxylic acid amide] | 550
NC(=O)n1cc(NC(=O)N2C[C@H](F)C[C@H]2CNC(=O)Cc2ccccc2)c2ccccc21 [Example 113, 3-{[(2S,4R)-4-Fluoro-2-(phenylacetylamino-methyl)-pyrrolidine-1-carbonyl]-amino}-indole-1-carboxylic acid amide] | 1150
NC(=O)n1cc(NC(=O)N2C[C@H](F)C[C@H]2CNCc2cccc(Cl)c2F)c2ccccc21 [Example 116, 3-({(2S,4R)-2-[(3-Chloro-2-fluoro-benzylamino)-methyl]-4-fluoro-pyrrolidine-1-carbonyl}-amino)-indole-1-carboxylic acid amide] | 1150
NC(=O)n1cc(NC(=O)N2CCC[C@H]2CNc2cccc(OC(F)(F)F)c2)c2ccccc21 [Example 117, 3-({(S)-2-[(3-Trifluoromethoxy-phenylamino)-methyl]-pyrrolidine-1-carbonyl}-amino)-indole-1-carboxylic acid amide] | 11800
NC(=O)c1cn(CC(=O)N2CCC[C@H]2C(=O)Nc2cccc(OC(F)(F)F)c2)c2ccccc12 [Example 118, 1-{2-oxo-2-[(S)-2-(3-trifluoromethoxy-phenylcarbamoyl)-pyrrolidin-1-yl]-ethyl}-1H-indole-3-carboxylic acid amide] | 17500
CC(=O)n1cc(CC(=O)N2CCC[C@H]2C(=O)Nc2cccc(OC(F)(F)F)c2)c2ccccc21 [Example 119, (S)-1-[2-(1-Acetyl-1H-indol-3-yl)-acetyl]-pyrrolidine-2-carboxylic acid (3-trifluoromethoxy-phenyl)-amide] | 4800
CC(=O)n1cc(C(N)C(=O)N2C[C@H](F)C[C@H]2C(=O)NCc2cccc(Cl)c2F)c2ccccc21 (stereo partly drawn) [Example 120, (2S,4R)-1-[2-(1-Acetyl-1H-indol-3-yl)-2-amino-acetyl]-4-fluoro-pyrrolidine-2-carboxylic acid 3-chloro-2-fluoro-benzylamide] | 3200
NC(=O)c1cc(NC(=O)N2CCC[C@H]2C(=O)Nc2cccc(OC(F)(F)F)c2)c2ccccn12 [Example 121, (S)-Pyrrolidine-1,2-dicarboxylic acid 1-[(3-carbamoyl-indolizin-1-yl)-amide]2-[(3-trifluoromethoxy-phenyl)-amide]] | 1250
NC(=O)c1cc(NC(=O)N2CCC[C@H]2C(=O)Nc2cccc(OC(F)(F)F)c2)n2ccccc12 [Example 123, (S)-Pyrrolidine-1,2-dicarboxylic acid 1-[(1-carbamoyl-indolizin-3-yl)-amide]2-[(3-trifluoromethoxy-phenyl)-amide]] | 2930

Source: patent US9085555B2, “Complement pathway modulators and uses thereof” (priority 2011, dated 2015)
